# Data: patent publication US8575186B2, “Epiminocycloalkyl[b] indole derivatives as serotonin sub-type 6 (5-HT6) modulators and uses thereof” (Albany Molecular Research, Inc., priority 2009, dated 2013)
# Where a name gives a salt, the structure may show the parent alone.
# Target: human 5-HT6 receptor (Homo sapiens (Human), UniProt P50406)
# Assay: radioligand binding assay (SPA format), [N-methyl-3H]-LSD
# Details: human 5HT6 Ki, human 5-HT6 receptor membranes, 10 nM [3H]-LSD
# Chain of human 5-HT6 receptor (P50406 whole entry): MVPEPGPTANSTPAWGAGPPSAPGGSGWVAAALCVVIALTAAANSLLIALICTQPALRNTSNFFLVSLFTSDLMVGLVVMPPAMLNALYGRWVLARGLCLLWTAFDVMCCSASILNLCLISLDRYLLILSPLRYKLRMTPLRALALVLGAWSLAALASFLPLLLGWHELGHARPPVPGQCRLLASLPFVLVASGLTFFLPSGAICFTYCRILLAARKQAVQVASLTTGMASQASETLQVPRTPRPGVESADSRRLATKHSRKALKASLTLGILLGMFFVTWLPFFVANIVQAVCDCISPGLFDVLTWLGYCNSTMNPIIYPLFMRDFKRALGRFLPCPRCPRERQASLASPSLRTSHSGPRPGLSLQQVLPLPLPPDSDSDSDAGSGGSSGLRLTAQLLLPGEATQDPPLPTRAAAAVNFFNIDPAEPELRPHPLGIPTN
row,Compound,Ki
1,Cn1c2c(c3cc(S(=O)(=O)n4ccc5ccc(C#N)cc54)ccc31)C1CCC(C2)N1 (stereo not shown) [Example 199],1.8 nM
2,COc1cc(S(=O)(=O)c2cccc(C(F)(F)F)c2)cc2c3c(n(C)c12)CC1CCC3N1 (stereo not shown) [Example 215],1.8 nM
3,COc1cc(S(=O)(=O)c2cccc(C(F)(F)F)c2)cc2c3c(n(C)c12)CC1CCC3N1 (stereo not shown) [Example 216],0.8 nM

# Same assay, conditions: read-out: human 5HT6 Ki; human 5-HT6 receptor membranes, 10 nM [3H]-LSD
row,Compound,Ki
1,Cn1c2c(c3cc(S(=O)(=O)n4ccc5cc(Cl)ccc54)ccc31)C1CCC(C2)N1 (stereo not shown) [Example 196],1.2 nM
2,Cn1c2c(c3cc(S(=O)(=O)n4ccc5ccc(C#N)cc54)ccc31)C1CCC(C2)N1 (stereo not shown) [Example 200],0.75 nM
3,Cc1cn(S(=O)(=O)c2ccc3c(c2)c2c(n3C)CC3CCC2N3)c2ccccc12 (stereo not shown) [Example 201],1.4 nM
4,Cc1cn(S(=O)(=O)c2ccc3c(c2)c2c(n3C)CC3CCC2N3)c2ccccc12 (stereo not shown) [Example 202],0.72 nM
5,Cn1c2c(c3cc(S(=O)(=O)c4cccc(C(F)(F)F)c4)cc(O)c31)C1CCC(C2)N1 (stereo not shown) [Example 209],0.53 nM
6,Cn1c2c(c3cc(S(=O)(=O)c4ccccc4F)cc(O)c31)C1CCC(C2)N1 (stereo not shown) [Example 210],1 nM
7,Cn1c2c(c3cc(S(=O)(=O)c4ccccc4F)cc(O)c31)C1CCC(C2)N1 (stereo not shown) [Example 211],1.6 nM
8,COc1cc(S(=O)(=O)c2cccc(OC(F)F)c2)cc2c3c(n(C)c12)CC1CCC3N1 (stereo not shown) [Example 214],3 nM
9,COc1cc(S(=O)(=O)c2cccc(F)c2)cc2c3c(n(C)c12)CC1CCC3N1 (stereo not shown) [Example 221],3.3 nM
10,COc1cc(S(=O)(=O)c2cccc(F)c2)cc2c3c(n(C)c12)CC1CCC3N1 (stereo not shown) [Example 222],0.56 nM
11,COc1cc(S(=O)(=O)c2cn(C)c3ccccc23)cc2c3c(n(C)c12)CC1CCC3N1 (stereo not shown) [Example 223],2.4 nM
12,COc1cc(S(=O)(=O)c2cn(C)c3ccccc23)cc2c3c(n(C)c12)CC1CCC3N1 (stereo not shown) [Example 224],0.99 nM
13,COc1cc(S(=O)(=O)c2cccc(Cl)c2)cc2c3c(n(C)c12)CC1CCC3N1C (stereo not shown) [Example 225],0.53 nM
14,COc1cc(S(=O)(=O)c2cccc(Cl)c2)cc2c3c(n(C)c12)CC1CCC3N1C (stereo not shown) [Example 226],1 nM
15,COc1cc(S(=O)(=O)c2cncc3ccccc23)cc2c3c(n(C)c12)CC1CCC3N1 (stereo not shown) [Example 232],9.6 nM
16,COc1cc(S(=O)(=O)c2cncc3ccccc23)cc2c3c(n(C)c12)CC1CCC3N1 (stereo not shown) [Example 233],3.7 nM
17,CCOc1cc(S(=O)(=O)c2ccccc2)cc2c3c(n(C)c12)CC1CCC3N1 (stereo not shown) [Example 234],4.9 nM
18,CCOc1cc(S(=O)(=O)c2ccccc2)cc2c3c(n(C)c12)CC1CCC3N1 (stereo not shown) [Example 235],0.42 nM
19,COc1cc(S(=O)(=O)n2ccc3ccccc32)cc2c3c(n(C)c12)CC1CCC3N1 (stereo not shown) [Example 240],0.85 nM
20,COc1cc(S(=O)(=O)n2ccc3ccccc32)cc2c3c(n(C)c12)CC1CCC3N1 (stereo not shown) [Example 241],0.35 nM
21,COc1cc(S(=O)(=O)n2ccc3ccc(C#N)cc32)cc2c3c(n(C)c12)CC1CCC3N1 (stereo not shown) [Example 242],2.4 nM
22,COc1cc(S(=O)(=O)n2ccc3ccc(C#N)cc32)cc2c3c(n(C)c12)CC1CCC3N1 (stereo not shown) [Example 243],0.58 nM
23,Cn1c2c(c3cc(S(=O)(=O)c4cccc(-n5cccn5)c4)ccc31)C1CCC(C2)N1 (stereo not shown) [Example 244],14 nM
24,Cn1c2c(c3cc(S(=O)(=O)c4cccc(-n5cccn5)c4)ccc31)C1CCC(C2)N1 (stereo not shown) [Example 245],9 nM
25,COc1cc(S(=O)(=O)c2cccc(-n3cccn3)c2)cc2c3c(n(C)c12)CC1CCC3N1 (stereo not shown) [Example 246],10 nM
26,COc1cc(S(=O)(=O)c2cccc(-n3cccn3)c2)cc2c3c(n(C)c12)CC1CCC3N1 (stereo not shown) [Example 247],1.5 nM

# System: not given
# Assay: not given
# Details: not given
row,melting point,Compound
1,238 to 244 °C (dec.),"Cl.Cn1c2c(c3cc(S(=O)(=O)c4ccccc4)ccc31)C1CCC(C2)N1 (stereo not shown) [Example 27, 2-Phenylsulfonyl-5-methyl-5,6,7,8,9,10-hexahydro-7,10-epiminocyclohepta[b]indole hydrochloride]"
2,200 to 205 °C,"Cl.Cn1c2c(c3cc(S(=O)(=O)c4ccc(C(F)(F)F)cc4)ccc31)C1CCC(C2)N1 (stereo not shown) [Example 29, 2-(4-Trifluoromethylphenyl)sulfonyl-5-methyl-5,6,7,8,9,10-hexahydro-7,10-epiminocyclohepta[b]indole hydrochloride]"
3,193 to 196 °C,"Cl.Cn1c2c(c3cc(S(=O)(=O)c4cccc(OC(F)(F)F)c4)ccc31)C1CCC(C2)N1 (stereo not shown) [Example 39, 2-(3-Trifluoromethoxyphenyl)sulfonyl-5-methyl-5,6,7,8,9,10-hexahydro-7,10-epiminocyclohepta[b]indole hydrochloride]"
4,211 to 214 °C,"Cl.Cn1c2c(c3cc(S(=O)(=O)c4cccc(C#N)c4)ccc31)C1CCC(C2)N1 (stereo not shown) [Example 43, 2-(3-Cyanophenyl)sulfonyl-5-methyl-5,6,7,8,9,10-hexahydro-7,10-epiminocyclohepta[b]indole hydrochloride]"
5,204 to 208 °C (dec.),"CN(C)c1cccc(S(=O)(=O)c2ccc3c(c2)c2c(n3C)CC3CCC2N3)c1.Cl (stereo not shown) [Example 45, 2-[(3-N,N-Dimethylamino)phenyl]sulfonyl-5-methyl-5,6,7,8,9,10-hexahydro-7,10-epiminocyclohepta[b]indole hydrochloride]"
6,211 to 217 °C,"Cl.Cn1c2c(c3cc(S(=O)(=O)c4cccc(NC5CCCC5)c4)ccc31)C1CCC(C2)N1 (stereo not shown) [Example 48, 2-[(3-N-Cyclopentylamino)phenyl]sulfonyl-5-methyl-5,6,7,8,9,10-hexahydro-7,10-epiminocyclohepta[b]indole hydrochloride]"
7,220 to 222 °C,"Cl.Cn1c2c(c3cc(S(=O)(=O)c4ccc5ccccc5c4)ccc31)C1CCC(C2)N1 (stereo not shown) [Example 50, 2-(2-Napthyl)sulfonyl-5-methyl-5,6,7,8,9,10-hexahydro-7,10-epiminocyclohepta[b]indole hydrochloride]"
8,220 to 225 °C,"Cl.Cn1c2c(c3cc(S(=O)(=O)c4ccc(N)cc4)ccc31)C1CCC(C2)N1 (stereo not shown) [Example 53, 2-(4-Aminophenyl)sulfonyl-5-methyl-5,6,7,8,9,10-hexahydro-7,10-epiminocyclohepta[b]indole hydrochloride]"
9,208 to 212 °C (dec.),"Cl.Cn1c2c(c3cc(S(=O)(=O)c4ccsc4)ccc31)C1CCC(C2)N1 (stereo not shown) [Example 56, 2-(3-Thienyl)sulfonyl-5-methyl-5,6,7,8,9,10-hexahydro-7,10-epiminocyclohepta[b]indole hydrochloride]"

row,Compound,melting point
1,"Cn1c2c(c3cc(S(=O)(=O)c4ccc(CN)cc4)ccc31)C1CCC(C2)N1 (stereo not shown) (as salt: hydrochloride) [Example 33, 2-(4-Aminomethylphenyl)sulfonyl-5-methyl-5,6,7,8,9,10-hexahydro-7,10-epiminocyclohepta[b]indole dihydrochloride]",237 to 239 °C
2,"CN(C)Cc1ccc(S(=O)(=O)c2ccc3c(c2)c2c(n3C)CC3CCC2N3)cc1 (stereo not shown) (as salt: hydrochloride) [Example 34, 2-[4-(N,N-Dimethylaminomethyl)phenyl]sulfonyl-5-methyl-5,6,7,8,9,10-hexahydro-7,10-epiminocyclohepta[b]indole dihydrochloride]",244 to 246 °C
